Laboratory results: patent US8703424B2, “Predicting human developmental toxicity of pharmaceuticals using human stem-like cells and metabolomics” (Stemina Biomarker Discovery, Inc., priority 2010, dated 2014)
Where two headings read alike, the source gives them in different places.

Assays:
[1] = system: hESCs; assay: Arginine / ADMA fold change ratio (integrated EICs) in dosed hESCs vs controls; conditions: for Arg fold change/ADMA fold change: EIC areas, controls vs. dosed
Experimental: All tested chemicals were purchased from Sigma-Aldrich (St. Louis, Mo.). Cells were dosed with drugs at a concentration equivalent to their published serum circulating therapeutic dosages. Dosing was performed on hESCs in 6-well plates in triplicate, i.e. three wells per plate. The plates were dosed in triplicate, so there were a total of nine dosed wells. In parallel, there were nine “control” wells, in which hESCs were cultured with mTeSR1 containing no drug, and three wells containing Matrigel with mTeSR1 medium without hESCs that served as medium controls. Lastly, three wells of dosed medium controls were prepared, containing Matrigel, mTeSR1 and drug, but no hESCs (FIG. 1). These medium controls provided baseline mass spectral data. On the first day of dosage, the determined concentration of drug was dissolved in mTeSR1, and then 2.5 mL of this solution was added to each dosed well of hESCs. Each day, for four days, the medium was removed and new dosed medium was added. On the fourth day, the medium was removed and added to acetonitrile to make a 40% acetonitrile solution, as outlined in the Sample Preparation section below.
Mass spectrometry was performed using an Agilent QTOF LC/MS system consisting of a G6520AA QTOF high resolution mass spectrometer capable of exact mass MS and MS/MS. In order to facilitate separation of small molecules with a wide range of polarity and to allow increased retention of hydrophilic species, Hydrophilic Interaction Liquid Chromatography (Alpert 1990) was employed. Each sample was run for 30 minutes with the gradient shown in Table 3 at a flow rate of 0.5 mL/min, using 0.1% formic acid in water (Solvent A) and 0.1% formic acid in acetonitrile (Solvent B). Electrospray ionization was employed using a dual ESI source, with an Agilent isocratic pump continuously delivering an internal mass reference solution into the source at approx. 0.01 mL/min. The mass range of the instrument was set to 100-1700 Da. A Phenomenex Luna HILIC column with dimensions 3×100 mm 3 μm particle size was used and maintained at 30° C. 5 μl of each sample was injected. Data acquisition was performed with Agilent MassHunter using high-resolution exact mass conditions.
Valproate is known to cause neural tube defects (DiLiberti et al. 1984) while nitric oxide synthase activity is essential for neural tube closure (Nachmany et al. 2006).

[2] = system: WA09 hESCs; assay: LC-MS metabolomics: abundance changes of metabolites in hESCs dosed at circulating dose; type: cell-based, human
Experimental: (§1) These medium controls provided baseline mass spectral data.
(§2) The 2.5 mL of spent media per well from Example 1 was added to 1.67 mL acetonitrile to make a 40% acetonitrile solution. The acetonitrile acts to “quench” the spent media sample, slowing or halting many metabolic processes and aiding in precipitation of cellular proteins. Samples were either stored at −80° C. for later analysis, or for immediate analysis, 250 μL of the quenched solution was mixed with 250 μL of water, to a final concentration of 20% acetonitrile, then added to a 3 kDa molecular weight cut-off filter spin column (Microcon YM-3 Centrifugal Filter, Millipore, Billerica, Mass.). Each sample was then centrifuged in an IEC CL31R Multispeed Centrifuge (Thermo Scientific, Waltham, Mass.) at 13,000×g at 4° C. for 200 minutes. Following centrifugation, the flow-through was saved then dried for several hours in a Savant High Capacity Speedvac Plus Concentrator. The concentrated sample was then dissolved in 50 μL of 0.1% formic acid prior to LC-MS analysis.
(§3) 5 μl of each sample was injected.
(§4) Following LC-MS, chromatograms were inspected for reproducibility. LC-MS runs with total ion counts that vary by more than 25% were repeated to ensure that samples could be accurately compared. These runs were then used to create mass features that correspond to molecules detected across the different LC-MS runs. Mass features were extracted from the LC-MS data using MassHunter Qualitative Analysis software (Agilent Technologies). The following criteria were used as general guidelines, however some flexibility and optimization was needed. m/z values within the range of 75-1500, with a charge of +1 or −1, and a centroid height greater than 1000 were used to generate “mass features.” The mass peaks that pass these criteria were used to fit isotope and adduct (Na^+, K^+, and NH4^+) patterns corresponding to individual molecules, and to establish the abundance of each mass feature. The abundance is calculated by MassHunter software as the sum of the isotopic and adduct peaks that correspond to a single molecular feature. After data deconvolution, mass features showing at least two ions (e.g. (M^+H)^+ and (M^+H)^++1 or (M^+H)^+ and (M^+Na)^+) and an abundance value greater than 50000 for positive-ion mode data and 10000 in negative-ion mode data were included in the data set used for binning of the mass features.
The media represents a major factor in the experimental system, in that it contributes many peaks to mass spectra. This can be accounted for in a data dependent manner to select for mass feature bins, which are present at significant levels above the media. Mass feature bins present solely in the presence of cells (not detected in media) or with average abundance levels different than uncultured media were considered to be secreted, excreted, consumed, or identified metabolites.
The exact mass of the metabolite must be within 10 ppm of the known mass of the compound. 2) The retention time of the metabolite detected in the cell media must be within + or −30 seconds of a reference standard on which MS data had been acquired under the same conditions. The reference standards were dissolved in mTeSR media and prepared in exactly the same manner (described above) as the samples from the cells, including the addition of acetonitrile, Centricon centrifugal filtration, drying then dissolution in formic acid prior to LC-MS analysis. 3) The MS-MS fragmentation spectra of the metabolite detected in the cell media must be a reasonable match with that of the reference standard, including abundances and m/z values of the fragment ions. If published MS-MS spectra are available, the MS-MS spectra must also be a reasonable match.

[3] = system: WA09 human embryonic stem (hES) cells; assay: PLS-DA prediction of teratogenicity from secretome of treated hES cells (Example 9); conditions: DevTox pharmaceutical
Excerpt: These included 11 known teratogens and 11 known non-teratogens. The current model is based on the mean fold change (treatment versus its associated intra-experimental control) of 15 metabolites common among the secretome of hES cells treated with pharmaceutical agents and unknown chemical compounds.

[4] = blinded drugs; cited from earlier work
[5] = system: WA09 hESCs; assay: Random forest prediction of teratogenicity from metabolomics of spent media of dosed hESCs; type: cell-based, human; conditions: for Predicted teratogenicity (random forest statistical model): blind study, model trained on TS1, 142 mass features, circulating dose
Experimental: WA09 hESCs, obtained from WiCell Research Institute (NIH National Stem Cell Bank, Madison, Wis.) were cultured in 6-well plates on Matrigel (BD Biosciences, San Jose, Calif.), in mTeSR1 medium (Stem Cell Technologies, Vancouver, BC) incubated at 37° C. under 5% CO2 in a Thermo Electron Form a Series II Water Jacket CO2 Incubator. hESCs were passaged every three or four days at a 1:3 or 1:6 seeding density for routine culture conditions. For dosing experiments, hESCs were passaged at a low density of 1:10 or 1:12 so that they would not require passaging during the […] dosing protocol. To passage hES cells, the StemPro® EZPassage™ disposable stem cell passaging tool (Invitrogen, Carlsbad, Calif.) was used to detach the cells from the wells. Detached cells were removed with a pipette and distributed to new Matrigel plates.
as §1, §2, §3, §4
Following feature selection by MassHunter, the data was further preprocessed by MassProfiler (Agilent) software which aligns mass features across multiple LC-MS data files. Mass features were generated for data from each drug treatment experiment (dosed and control) using the default alignment settings in MassProfiler with the requirement that a feature be present in at least 80% of the samples in one treatment. The mass feature datasets for each drug treatment experiment were further processed in a global manner using custom analysis scripts executed in the R statistical software environment. […]

[6] = high dose (H = 10x circulating dose)
[7] = low dose (L = 0.1x circulating dose)

| Compound | Arg/ADMA Prediction [1] | Arg fold change/ADMA fold change [1] | Abundance of asymmetric dimethylarginine (ADMA) ([2]; drug-treated vs control) | Abundance of succinic acid ([2]; drug-treated vs control) | % Non (PLS-DA class probability non-teratogen) [3, 6] | % Ter (PLS-DA class probability teratogen) [3, 6] | Confidence (difference between class probabilities) [3, 6] | Prediction [3, 6] | % Non (PLS-DA class probability non-teratogen) [3, 7] | % Ter (PLS-DA class probability teratogen) [3, 7] | Confidence (difference between class probabilities) [3, 7] | Prediction [3, 7] | Concentration of GABA in the secretome of hESCs ([2]; dosed hESCs) | Changes in metabolites on dosing [2] | Actual teratogenicity [4] | Predicted teratogenicity (random forest statistical model) [5] | Arg/ADMA Prediction ([1]; from fold change ratio) | Classification by the refined random forest model (FIG. 3) ([5]; 18-feature model, 26 drug treatment experiments) |
| --- | --- | --- | --- | --- | --- | --- | --- | --- | --- | --- | --- | --- | --- | --- | --- | --- | --- | --- |
| CCCC(CCC)C(=O)O [Valproic Acid] | Ter | 2.11 | significant fold decrease | significant down regulation |  |  |  |  |  |  |  |  |  |  |  |  |  |  |
| CS(=O)(=O)OCCCCOS(C)(=O)=O [Busulfan] | Ter | 1.12 |  |  | 0.28 | 0.72 | 0.44 | Ter | 0.29 | 0.71 | 0.42 | Ter | Increased concentrations |  |  |  |  |  |
| CN(Cc1cnc2nc(N)nc(N)c2n1)c1ccc(C(=O)N[C@@H](CCC(=O)O)C(=O)O)cc1 [Methotrexate] | Ter | 2.54 |  | significant down regulation | 0.42 | 0.58 | 0.16 | Ter | 0.48 | 0.52 | 0.04 | Ter |  |  |  |  |  |  |
| O=c1[nH]cc(F)c(=O)[nH]1 [5-Fluorouracil] | Ter | 43.93 |  | significant down regulation | 0.32 | 0.68 | 0.36 | Ter | 0.28 | 0.72 | 0.44 | Ter |  | most profound changes in many metabolites |  |  |  |  |
| NC(=O)NO [Hydroxyurea] | Ter | 2.52 |  | significant down regulation | 0.32 | 0.68 | 0.36 | Ter | 0.64 | 0.36 | 0.28 | Non |  |  |  |  |  |  |
| CC1=C(/C=C/C(C)=C/C=C/C(C)=C/CO)C(C)(C)CCC1 [Retinol] |  | 1.03 |  |  | 0.65 | 0.35 | 0.3 | Non | 0.75 | 0.25 | 0.5 | Non |  |  | Non | Non |  |  |
| O=P1(N(CCCl)CCCl)NCCCO1 (stereo not shown) [Cyclophosphamide] |  | 1.56 |  | significant down regulation | 0.45 | 0.55 | 0.1 | Ter | 0.41 | 0.59 | 0.18 | Ter |  |  |  | Ter | Ter |  |
| Nc1ccn([C@@H]2O[C@H](CO)[C@@H](O)[C@@H]2O)c(=O)n1 [Cytosine Arabinoside] | Ter | 67.01 |  | significant down regulation |  |  |  |  |  |  |  |  |  | most profound changes in many metabolites |  |  |  |  |
| NC(=O)N1c2ccccc2C=Cc2ccccc21 [Carbamazepine] | Ter | 1.12 |  | significant down regulation | 0.37 | 0.63 | 0.26 | Ter | 0.5 | 0.5 | 0 | Non |  |  |  | Ter |  |  |
| CO[C@H]1/C=C/O[C@@]2(C)Oc3c(C)c(O)c4c(O)c(c(/C=N/N5CCN(C)CC5)c(O)c4c3C2=O)NC(=O)/C(C)=C\C=C\[C@H](C)[C@H](O)[C@@H](C)[C@@H](O)[C@@H](C)[C@H](OC(C)=O)[C@@H]1C [Rifampicin] | Ter | 0.81 |  |  | 0.27 | 0.73 | 0.46 | Ter | 0.46 | 0.54 | 0.08 | Ter |  |  |  | Ter |  | misclassified as non-teratogens |
